Test results as given in patent publication US20240158446A1, “CYCLIC COMPOUND HAVING SELECTIVE INHIBITORY ACTION ON KRAS OVER HRAS AND NRAS” (CHUGAI SEIYAKU KABUSHIKI KAISHA, priority 2021, published 2024).

Assays:
[1] = tested on: human lung cancer strain NCI-H441;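 note: cell proliferation inhibition after four days measured by CellTiter-Glo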
[2] = biological target: GDP-bound NRAS wild-type protein (Homo sapiens, UniProt P01111); assay: Binding to NRAS by surface plasmon resonance (SPR), Single Cycle Kinetics; settings: SPR, GDP-bound NRAS wild-type protein vs GDP-bound KRAS wild-type protein
Sequence of GDP-bound NRAS wild-type protein (P01111 whole entry): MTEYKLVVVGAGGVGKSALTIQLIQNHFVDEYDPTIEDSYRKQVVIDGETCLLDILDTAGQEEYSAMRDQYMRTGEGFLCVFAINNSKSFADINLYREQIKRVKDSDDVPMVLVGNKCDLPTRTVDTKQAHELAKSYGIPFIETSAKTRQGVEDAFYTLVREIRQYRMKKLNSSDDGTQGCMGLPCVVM

[3] = biological target: GDP-bound HRAS wild-type protein (Homo sapiens, UniProt P01112); assay: Binding to HRAS by surface plasmon resonance (SPR), Single Cycle Kinetics; settings: SPR, GDP-bound HRAS wild-type protein vs GDP-bound KRAS wild-type protein
Sequence of GDP-bound HRAS wild-type protein (P01112 whole entry): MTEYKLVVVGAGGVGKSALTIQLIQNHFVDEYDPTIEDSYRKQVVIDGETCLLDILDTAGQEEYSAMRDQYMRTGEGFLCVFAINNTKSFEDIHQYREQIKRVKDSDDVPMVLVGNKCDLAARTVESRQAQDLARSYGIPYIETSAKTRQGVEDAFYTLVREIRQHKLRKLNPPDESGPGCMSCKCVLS

[4] = biological target: GDP-bound KRAS wild-type protein (Homo sapiens, UniProt P01116); assay: Binding to KRAS by surface plasmon resonance (SPR), Single Cycle Kinetics; settings: SPR, Single Cycle Kinetics, GDP-bound KRAS wild-type protein; read-out: KRAS KD
Sequence of GDP-bound KRAS wild-type protein (P01116 whole entry): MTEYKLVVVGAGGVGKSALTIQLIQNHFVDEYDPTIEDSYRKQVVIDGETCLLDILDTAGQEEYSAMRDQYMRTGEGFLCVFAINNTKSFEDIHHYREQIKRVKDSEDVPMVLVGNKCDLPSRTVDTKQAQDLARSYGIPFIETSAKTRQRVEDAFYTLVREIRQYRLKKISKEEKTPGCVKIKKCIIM

For `CCOC[C@H]1C(=O)N[C@@H]([C@@H](C)CC)C(=O)N(C)CC(=O)N(C)[C@H]2C/C=C\CCN(C2=O)[C@@H](Cc2ccc(C)cc2)C(=O)N(C)CC(=O)N[C@@H](CCc2ccc(C(F)(F)F)c(Cl)c2)C(=O)N2C[C@@H](C)C[C@H]2C(=O)NC2(CC(C)(C)C2)C(=O)N(C)[C@@H](C2CCCC2)C(=O)N(C)[C@H](C(=O)N(C)CC)CC(=O)N1C` [PP2451], the IC50 [1] was 8.6 nM, the “NRAS/KRAS (ratio of KD value for NRAS to KD value for KRAS)” value [2] was “A (a compound having 10 or more and less than 20 is denoted as A)” and the “HRAS/KRAS (ratio of KD value for HRAS to KD value for KRAS)” value [3] was “A (a compound having 10 or more and less than 20 is denoted as A)”. It also gave a Kd [4] of 0.17 nM.

In the case of `CCO[C@@H]1C[C@H]2C(=O)NC3(CC(C)(C)C3)C(=O)N(C)[C@@H](C(CC)CC)C(=O)N(C)[C@H](C(=O)N(C)C)CC(=O)N(C)[C@@H](COC)C(=O)N[C@@H]([C@@H](C)CC)C(=O)N(C)CC(=O)N(C)[C@H]3C/C=C\CCN(C3=O)[C@@H](CC3CCCCC3)C(=O)N(C)CC(=O)N[C@@H](CCc3ccc(C(F)(F)F)c(OC)c3)C(=O)N2C1` [PP2452], the IC50 [1] is reported as 43.4 nM, the “NRAS/KRAS (ratio of KD value for NRAS to KD value for KRAS)” value [2] is reported as “A (a compound having 10 or more and less than 20 is denoted as A)” and the “HRAS/KRAS (ratio of KD value for HRAS to KD value for KRAS)” value [3] is reported as “A (a compound having 10 or more and less than 20 is denoted as A)”. It also gave a Kd [4] of 1.5 nM.

For `CCCOC[C@H]1C(=O)N[C@@H]([C@@H](C)CC)C(=O)N(C)CC(=O)N(C)[C@H]2C/C=C\CCN(C2=O)[C@@H](Cc2ccc(C)cc2)C(=O)N(C)CC(=O)N[C@@H](CCc2ccc(C(F)(F)F)c(Cl)c2)C(=O)N2C[C@@H](C)C[C@H]2C(=O)NC2(CC(C)(C)C2)C(=O)N(C)[C@@H](C2CCCC2)C(=O)N(C)[C@H](C(=O)N(C)C)CC(=O)N1C` [PP2453], the IC50 [1] was 9.2 nM, the “NRAS/KRAS (ratio of KD value for NRAS to KD value for KRAS)” value [2] was “A (a compound having 10 or more and less than 20 is denoted as A)” and the “HRAS/KRAS (ratio of KD value for HRAS to KD value for KRAS)” value [3] was “A (a compound having 10 or more and less than 20 is denoted as A)”. For the same compound, the Kd [4] was 0.09 nM.

In the case of `CCC(CC)[C@H]1C(=O)N(C)[C@H](C(=O)N(C)C)CC(=O)N(C)[C@@H](COC)C(=O)N[C@@H]([C@@H](C)CC)C(=O)N(C)CC(=O)N(C)[C@H]2C/C=C\CCN(C2=O)[C@@H](CC2CCC(F)(F)CC2)C(=O)N(C)CC(=O)N[C@@H](CCc2ccc(C(F)(F)F)c(Cl)c2)C(=O)N2C[C@@H](C)C[C@H]2C(=O)NC2(CC(C)(C)C2)C(=O)N1C` [PP2454], the IC50 [1] is reported as 80.2 nM, the “NRAS/KRAS (ratio of KD value for NRAS to KD value for KRAS)” value [2] is reported as “AA (a compound having 20 or more is denoted as AA)” and the “HRAS/KRAS (ratio of KD value for HRAS to KD value for KRAS)” value [3] is reported as “A (a compound having 10 or more and less than 20 is denoted as A)”. For the same compound, the Kd [4] was 1.2 nM.

`CC[C@H](C)[C@@H]1NC(=O)[C@H](COC)N(C)C(=O)C[C@@H](C(=O)N(CC)CC)N(C)C(=O)[C@H](C2CCCC2)N(C)C(=O)C2(CC(C)(C)C2)NC(=O)[C@@H]2C[C@H](C)CN2C(=O)[C@H](CCc2cc(F)c(C(F)(F)F)c(F)c2)NC(=O)CN(C)C(=O)[C@H](Cc2ccc(C)cc2)N2CC/C=C\C[C@@H](C2=O)N(C)C(=O)CN(C)C1=O` [PP2455] was tested, and the IC50 [1] was 23.4 nM, the “NRAS/KRAS (ratio of KD value for NRAS to KD value for KRAS)” value [2] was “AA (a compound having 20 or more is denoted as AA)” and the “HRAS/KRAS (ratio of KD value for HRAS to KD value for KRAS)” value [3] was “A (a compound having 10 or more and less than 20 is denoted as A)”. For the same compound, the Kd [4] was 0.32 nM.

In the case of `CCO[C@@H]1C[C@H]2C(=O)NC3(CC(C)(C)C3)C(=O)N(C)[C@@H](C(CC)CC)C(=O)N(C)[C@H](C(=O)N(C)C)CC(=O)N(C)[C@@H](COC)C(=O)N[C@@H]([C@@H](C)CC)C(=O)N(C)CC(=O)N(C)[C@H]3C/C=C\CCN(C3=O)[C@@H](CC3CCCCC3)C(=O)N(C)CC(=O)N[C@@H](CCc3cc(F)c(C(F)(F)F)c(F)c3)C(=O)N2C1` [PP2456], the IC50 [1] is reported as 18.8 nM, the “NRAS/KRAS (ratio of KD value for NRAS to KD value for KRAS)” value [2] is reported as “A (a compound having 10 or more and less than 20 is denoted as A)” and the “HRAS/KRAS (ratio of KD value for HRAS to KD value for KRAS)” value [3] is reported as “A (a compound having 10 or more and less than 20 is denoted as A)”. It also gave a Kd [4] of 1.1 nM.

With `CCOC[C@H]1C(=O)N[C@@H]([C@@H](C)CC)C(=O)N(C)CC(=O)N(C)[C@H]2C/C=C\CCN(C2=O)[C@@H](Cc2ccc(C)cc2)C(=O)N(C)CC(=O)N[C@@H](CCc2cc(F)c(C(F)(F)F)c(F)c2)C(=O)N2C[C@@H](C)C[C@H]2C(=O)NC2(CC(C)(C)C2)C(=O)N(C)[C@@H](C2CCCC2)C(=O)N(C)[C@H](C(=O)N(C)CC)CC(=O)N1C` [PP2457] the IC50 [1] was 13.3 nM, the “NRAS/KRAS (ratio of KD value for NRAS to KD value for KRAS)” value [2] was “A (a compound having 10 or more and less than 20 is denoted as A)” and the “HRAS/KRAS (ratio of KD value for HRAS to KD value for KRAS)” value [3] was “A (a compound having 10 or more and less than 20 is denoted as A)”. The Kd [4] was 0.17 nM.

With `CCOC[C@H]1C(=O)N[C@@H]([C@@H](C)CC)C(=O)N(C)CC(=O)N(C)[C@H]2C/C=C\CCN(C2=O)[C@@H](CC2CCC(F)(F)CC2)C(=O)N(C)CC(=O)N[C@@H](CCc2ccc(C(F)(F)F)c(OC)c2)C(=O)N2C[C@@H](C)C[C@H]2C(=O)NC2(CC(C)(C)C2)C(=O)N(C)[C@@H](C(CC)CC)C(=O)N(C)[C@H](C(=O)N(C)C)CC(=O)N1C` [PP2458] the IC50 [1] was 80.7 nM, the “NRAS/KRAS (ratio of KD value for NRAS to KD value for KRAS)” value [2] was “A (a compound having 10 or more and less than 20 is denoted as A)” and the “HRAS/KRAS (ratio of KD value for HRAS to KD value for KRAS)” value [3] was “A (a compound having 10 or more and less than 20 is denoted as A)”. For the same compound, the Kd [4] was 1.3 nM.

With `CCOC[C@H]1C(=O)N[C@@H]([C@@H](C)CC)C(=O)N(C)CC(=O)N(C)[C@H]2C/C=C\CCN(C2=O)[C@@H](CC2CCC(F)(F)CC2)C(=O)N(C)CC(=O)N[C@@H](CCc2ccc(C(F)(F)F)c(Cl)c2)C(=O)N2C[C@H](OCC)C[C@H]2C(=O)NC2(CC(C)(C)C2)C(=O)N(C)[C@@H](C(CC)CC)C(=O)N(C)[C@H](C(=O)N(C)C)CC(=O)N1C` [PP2460] the IC50 [1] was 18.7 nM, the “NRAS/KRAS (ratio of KD value for NRAS to KD value for KRAS)” value [2] was “A (a compound having 10 or more and less than 20 is denoted as A)” and the “HRAS/KRAS (ratio of KD value for HRAS to KD value for KRAS)” value [3] was “A (a compound having 10 or more and less than 20 is denoted as A)”. It also gave a Kd [4] of 0.71 nM.

In the case of `CCCOC[C@H]1C(=O)N[C@@H]([C@@H](C)CC)C(=O)N(C)CC(=O)N(C)[C@H]2C/C=C\CCN(C2=O)[C@@H](Cc2ccc(C)cc2)C(=O)N(C)CC(=O)N[C@@H](CCc2ccc(C(F)(F)F)c(OC)c2)C(=O)N2C[C@@H](C)C[C@H]2C(=O)NC2(CC(C)(C)C2)C(=O)N(C)[C@@H](C2CCCC2)C(=O)N(C)[C@H](C(=O)N(C)CC)CC(=O)N1C` [PP2461], the IC50 [1] is reported as 10.6 nM, the “NRAS/KRAS (ratio of KD value for NRAS to KD value for KRAS)” value [2] is reported as “A (a compound having 10 or more and less than 20 is denoted as A)” and the “HRAS/KRAS (ratio of KD value for HRAS to KD value for KRAS)” value [3] is reported as “A (a compound having 10 or more and less than 20 is denoted as A)”. The Kd [4] was 0.15 nM.

With `CCOC[C@H]1C(=O)N[C@@H]([C@@H](C)CC)C(=O)N(C)CC(=O)N(C)[C@H]2C/C=C\CCN(C2=O)[C@@H](CC2CCC(F)(F)CC2)C(=O)N(C)CC(=O)N[C@@H](CCc2cc(F)c(C(F)(F)F)c(F)c2)C(=O)N2C[C@@H](C)C[C@H]2C(=O)NC2(CC(C)(C)C2)C(=O)N(C)[C@@H](C(CC)CC)C(=O)N(C)[C@H](C(=O)N(C)C)CC(=O)N1C` [PP2462] the IC50 [1] was 87.2 nM, the “NRAS/KRAS (ratio of KD value for NRAS to KD value for KRAS)” value [2] was “A (a compound having 10 or more and less than 20 is denoted as A)” and the “HRAS/KRAS (ratio of KD value for HRAS to KD value for KRAS)” value [3] was “A (a compound having 10 or more and less than 20 is denoted as A)”. The Kd [4] was 1.6 nM.
